Consider 43 compounds from patent US20200077648A1, “PHENOXYPHENYLAMIDINES AND THE USE THEREOF AS FUNGICIDES” (priority 2016, published 2020).

Structures are written as SMILES.

Data set [1] in a line: Log P measurement by HPLC on reversed phase columns (EEC directive 79/831 Annex V.A8; methods [a], [b], [c]). It is filed as physicochemical. As to the method:
If more than one Log P value is available within the same method, all the values are given and separated by “+”. […] Lambda-max-values were determined using UV-spectra from 200 nm to 400 nm and the peak values of the chromatographic signals.

In another data set the test system is soy bean plants. Kind of data set: Plant compatibility test using soy bean plants. Format: in vivo. To be noted: soy bean young plants sprayed, rate of application of active compound 500 ppm, evaluated 6 days after application; 0% = no damages, 100% = plants totally damaged. As to the method: Plant Compatibility Test Using Soy Bean Plants
Solvent: 24.5 parts by weight of acetone • 24.5 parts by weight of dimethylacetamide Emulsifier: 1 part by weight of alkylaryl polyglycol ether
To produce a suitable preparation of active compound, 1 part by weight of active compound is mixed with the stated amounts of solvent and emulsifier, and the concentrate is diluted with water to the desired concentration. Young plants are sprayed with the preparation of active compound at the stated application rate. The plants are then placed in a greenhouse at approximately 21° C. and a relative atmospheric humidity of approximately 80%. The test is evaluated 6 days after application and comprises plant damages like leaf deformation, chlorosis, necrosis, shoot damage or stunting. 0% means no damages are observed, while 100% means that the plants are totally damaged.

[2] abbreviates: method [a]: LC-UV, acidic range, 0.1% formic acid in water and acetonitrile as eluent.
Setting [3] is: method [b]: LC-UV, neutral range, 0.001 molar ammonium acetate solution in water and acetonitrile as eluent.
[4] abbreviates: method [a]: LC-UV, acidic range, 0.1% formic acid in water and acetonitrile as eluent (linear gradient 10% to 95% acetonitrile).

Turning to `CCN(C)C=Nc1cc(C)c(Oc2cccc(F)c2)cc1C` [Example 2], in data set [1] (setting [2]), the LogP is 1.50^[a]. In the data set on soy bean plants, this compound came in with a Necrosis in % of 80%.

As for `CCN(C)C=Nc1cc(C)c(Oc2cccc(F)c2)cc1Cl` [Example 5], the LogP in data set [1] (setting [2]) was 1.58^[a]. The compound also had a Necrosis in % in the data set on soy bean plants of 10%.

Consider `Cc1cc(N=CN(C)C(C)C)c(Cl)cc1Oc1ccccc1F` [Example 7], for which the LogP in data set [1] (setting [2]) is 1.80^[a]. This compound showed a Necrosis in % with soy bean plants of 10%.

Turning to `CCN(C)C=Nc1cc(Cl)c(Oc2ccc(F)cc2)cc1C` [Example 8], in data set [1] (setting [2]), the LogP is 1.55^[a]. Also, the Necrosis in % with soy bean plants was found to be 0%.

Regarding `CCN(C)C=Nc1cc(C)c(Oc2ccc(F)cc2)cc1Cl` [Example 9], the LogP in data set [1] (setting [2]) is 1.47^[a]. In the data set with soy bean plants, the Necrosis in % came to 5%.

Consider `CCN(C)C=Nc1cc(Cl)c(Oc2cccc(F)c2)cc1C` [Example 12], for which, in data set [1] (setting [2]), the LogP is 1.75^[a]. For the same compound, the Necrosis in % with soy bean plants amounted to 5%.

Consider `CCN(C)C=Nc1cc(C)c(Oc2ccccc2Cl)cc1C` [Example 16], for which the LogP in data set [1] (setting [2]) was 1.86^[a]. This compound also had a Necrosis in % in the data set with soy bean plants of 30%.

Consider `CCN(C)C=Nc1cc(C)c(Oc2cccc(F)c2F)cc1C` [Example 19], for which the LogP in data set [1] (setting [2]) is 1.49^[a]. The Necrosis in % in the data set with soy bean plants was 60%.

Regarding `CCN(C)C=Nc1cc(C)c(Oc2cccc(C)c2F)cc1C` [Example 20], the LogP in data set [1] (setting [2]) is 1.69^[a]. In the data set on soy bean plants, the Necrosis in % is given as 80%.

Regarding `CCN(C)C=Nc1cc(C(F)(F)F)c(Oc2ccccc2C#N)cc1C` [Example 21], the LogP in data set [1] (setting [2]) was 1.46^[a]. Further, the Necrosis in % in the data set with soy bean plants is recorded as 20%.

Regarding `CCN(C)C=Nc1cc(I)c(Oc2ccccc2)cc1C` [Example 30], the LogP in data set [1] (setting [2]) was 1.69^[a];; in data set [1] (setting [3]) it was 5.01^[b]. Further, in the data set on soy bean plants, the Necrosis in % was 50%.

For the compound `CCN(C)C=Nc1cc(OC)c(Oc2ccccc2)cc1C` [Example 31], the LogP in data set [1] (setting [2]) was 1.42^[a];; in data set [1] (setting [3]) it was 3.93^[b]. Moreover, in the data set with soy bean plants, the Necrosis in % was 30%.

Turning to `CCN(C)C=Nc1cc(Br)c(Oc2ccccc2)cc1C` [Example 36], the values for the LogP in data set [1] (setting [2]) and in data set [1] (setting [3]) were 1.58^[a]; and 4.79^[b], respectively. In the data set on soy bean plants, this compound yielded a Necrosis in % of 40%.

Take `CCN(C)C=Nc1cc(Br)c(Oc2ccccc2F)cc1C` [Example 42]: the LogP in data set [1] (setting [2]) was 1.55^[a]. Also, the Necrosis in % with soy bean plants is listed as 20%.

With `CCN(C)C=Nc1cc(Cl)c(Oc2cccc(Cl)c2)cc1C` [Example 48], the LogP in data set [1] (setting [2]) is 1.83^[a]. Besides, the Necrosis in % in the data set on soy bean plants is given as 30%.

`CCN(C)C=Nc1cc(I)c(Oc2ccccc2F)cc1C` [Example 55]: the LogP in data set [1] (setting [2]) was 1.58^[a]. In addition, the Necrosis in % in the data set with soy bean plants was found to be 10%.

Take `CCN(C)C=Nc1cc(I)c(Oc2ccccc2C#N)cc1C` [Example 56]: the LogP in data set [1] (setting [2]) was 1.37^[a]. In addition, in the data set on soy bean plants, the Necrosis in % is on record as 10%.

For `CCN(C)C=Nc1cc(F)c(Oc2ccccc2F)cc1C` [Example 65], in data set [1] (setting [2]), the LogP was 1.34^[a]. In the data set with soy bean plants, this compound displayed a Necrosis in % of 20%.

As to `Cc1cc(Oc2ccccc2F)c(C)cc1N=CN(C)C(C)C` [Example 67], the LogP in data set [1] (setting [2]) is 1.68^[a]. This compound also registered a Necrosis in % in the data set on soy bean plants of 40%.

With `Cc1cc(Oc2ccccc2C#N)c(C)cc1N=CN(C)C(C)C` [Example 71], in data set [1] (setting [4]), the LogP is 1.48^[a]. Besides, the Necrosis in % in the data set on soy bean plants is listed as 5%.

As for `CCN(C)C=Nc1cc(C)c(Oc2cccc(F)c2C#N)cc1Cl` [Example 88], the LogP in data set [1] (setting [4]) was 1.35^[a]. Also, in the data set with soy bean plants, the Necrosis in % was 20%.

For the compound `CCN(C)C=Nc1cc(C)c(Oc2cc(F)ccc2C#N)cc1Cl` [Example 93], the LogP in data set [1] (setting [4]) was 1.27^[a]. The Necrosis in % in the data set with soy bean plants came to 10%.

Regarding `CCN(C)C=Nc1cc(C(F)F)c(Oc2ccccc2C#N)cc1C` [Example 102], the LogP in data set [1] (setting [4]) was 1.18^[a]. This compound also gave a Necrosis in % in the data set on soy bean plants of 0%.

Take `CCN(C)C=Nc1cc(C(F)F)c(Oc2ccccc2F)cc1C` [Example 105]: in data set [1] (setting [4]), the LogP was 1.46^[a]. Also, the Necrosis in % in the data set with soy bean plants turned out to be 0%.

As for `CCc1cc(N=CN(C)CC)c(C)cc1Oc1ccccc1F` [Example 106], the LogP in data set [1] (setting [4]) is 1.69^[a]. The same compound returned a Necrosis in % in the data set on soy bean plants of 30%.

On to `CCN(C)C=Nc1cc(C(C)C)c(Oc2ccccc2C#N)cc1C` [Example 107], for which the LogP in data set [1] (setting [4]) was 1.75^[a]. For the same compound, in the data set with soy bean plants, the Necrosis in % was 0%.

As to `CCc1cc(N=CN(C)CC)c(C)cc1Oc1ccccc1C#N` [Example 108], the LogP in data set [1] (setting [4]) is 1.59^[a].

Regarding `C=C(C)c1cc(N=CN(C)CC)c(C)cc1Oc1ccccc1C#N` [Example 109], the LogP in data set [1] (setting [4]) is 1.60^[a].

`CCN(C)C=Nc1cc(C)c(Oc2ccccc2F)cc1C1CC1` [Example 110]: the LogP in data set [1] (setting [4]) was 1.83^[a].

For `C#Cc1cc(Oc2ccccc2)c(C)cc1N=CN(C)CC` [Example 111], in data set [1] (setting [4]), the LogP is 1.44^[a].

Take `C#Cc1cc(Oc2ccccc2F)c(C)cc1N=CN(C)CC` [Example 112]: the LogP in data set [1] (setting [4]) is 1.44^[a].

As for `CCN(C)C=Nc1cc(C)c(Oc2ccccc2)cc1C1CC1` [Example 113], in data set [1] (setting [4]), the LogP is 1.58^[a].

In the case of `CCN(C)C=Nc1cc(C)c(Oc2ccccc2C(F)(F)F)cc1C` [Example 114], the LogP in data set [1] (setting [4]) was 1.69^[a]. Moreover, the Necrosis in % in the data set on soy bean plants came to 5%.

`CCN(C)C=Nc1cc(C)c(Oc2ccccc2SC)cc1C` [Example 115]: the LogP in data set [1] (setting [4]) is 1.55^[a].

In the case of `CCN(C)C=Nc1cc(C)c(Oc2ccccc2[S+](C)[O-])cc1C` (stereo not drawn) [Example 116], the LogP in data set [1] (setting [4]) is 0.94^[a].

As to `CCN(C)C=Nc1cc(C)c(Oc2ccccc2F)cc1C(=O)N(C)C` [Example 117], in data set [1] (setting [4]), the LogP is 1.24^[a].

With `C=C(C)c1cc(N=CN(C)CC)c(C)cc1Oc1ccccc1F` [Example 118], the LogP in data set [1] (setting [4]) is 1.60^[a]. Further, the Necrosis in % with soy bean plants came out at 5%.

As to `CCN(C)C=Nc1cc(C2CC2)c(Oc2ccccc2C#N)cc1C` [Example 119], in data set [1] (setting [4]), the LogP was 1.38^[a].

`CCN(C)C=Nc1cc(C2CC2)c(Oc2ccccc2F)cc1C` [Example 120]: in data set [1] (setting [4]), the LogP is 1.60^[a]. Further, in the data set on soy bean plants, the Necrosis in % is recorded as 0%.

On to `CCN(C)C=Nc1cc(C(C)C)c(Oc2ccccc2F)cc1C` [Example 121], for which the LogP in data set [1] (setting [4]) is 1.75^[a].

Turning to `CCN(C)C=Nc1cc(C)c(Oc2ccccc2S(C)(=O)=O)cc1C` [Example 122], the LogP in data set [1] (setting [4]) is 0.91^[a].

`CCN(C)C=Nc1cc(C)c(Oc2ccccc2S(C)(=O)=O)cc1Br` [Example 123]: in data set [1] (setting [4]), the LogP was 0.94^[a].

Consider `Cc1cc(Oc2ccccc2C#N)c(I)cc1N=CN(C)C(C)C` [Example 426], for which, in data set [1] (setting [4]), the LogP was 1.41^[a].
